Consider 4 compounds from patent US9487555B2, “Prodrug of an ice inhibitor” (VERTEX PHARMACEUTICALS INCORPORATED, priority 2000, dated 2016).

The series is described as follows: Oral pharmacokinetic studies in rats (quantitation of ICE inhibitor in rat plasma by HPLC/MS/MS). It is filed as in vivo, Male Sprague-Dawley rats. The following applies: for AUC: male Sprague-Dawley rats, oral 50 mg/kg in 100% propylene glycol, plasma, noncompartmental; for Bioavailability (in words): amount of ICE inhibitor in rat plasma after oral administration, comparison in words. Here is the method: Applicants studied a number of prodrug ICE inhibitors, including examples listed in the aforementioned WO 99/47545. Bioavailability was determined by quantitating the amount of ICE inhibitor in rat plasma after oral administration, as described below.
Male Sprague-Dawley rats (Harlan, Indianapolis, Ind., 300-350 g) were anesthetized by an intramuscular injection of ketamine/rompun mixture. A PE-50 cannula was inserted in the right carotid artery for arterial blood sampling. The rats were allowed to recover from surgery overnight (16 hours) prior to being used in the study. Test compounds were administered orally at 50 mg/kg 100% propylene glycol (PG) at a dose volume of 10 mL/kg. Blood samples (˜0.30 mL) were removed at 0.25, 0.50, 1.0, 1.5, 2, 3, 4, 6, and 8 hours post-dose, plasma separated by centrifugation and stored at −80° C. pending analysis. Quantification of the plasma samples was conducted using a gradient HPLC/MS/MS similar to the one detailed below: […]
HPLC/MS/MS Method for the Quantitation of ICE Inhibitors in Rat Plasma
1. 100 μl of plasma are aliquotted into Ependorf centrifuge vials.
2. An equal volume of acetonitrile is added to the plasma to precipitate plasma proteins.
3. Samples are vortexed for 2 minutes, and centrifuged at 14,000 rpms for 3 minutes.
4. 100 μl of the supernatant is loaded into 12 mm HPLC liquid sampler vials.
5. A 20 μl addition of […] standard is added to the 100 μl aliquot to monitor variation in instrumental response.
6. 10 μl of sample is injected for analysis via the mass spectrometer.
HPLC Instrumental Parameters
• HPLC: Hewlett Packard HP1100 Binary Solvent Delivery System. HPLC Gradient Conditions • A=H2O 0.2% Formic Acid • B=Acetonitrile 0.2% Formic Acid Mobile Phase
• HPLC Analytical Column: Keystone Phenyl-1 Hypersil 2.0×100 mm, 5μ 120 Å pore pore size, P/N# 105-36-2. • Injection Volume: 10 μl • Flow Rate: 0.20 mL/min. Mass Spectrometry Instrumental Parameters • Instrument: Micromass Quattro Ultima, Tandem Mass Spectrometer • Ionization Technique: Orthogonal spray (ESI) • Polarity: Positive • Dwell Time: 300 msec • Pause Time: 5 msec • Scan time: 0.9 sec • Scan Mode: MRM (Multiple Reaction Monitoring) • Ions/Transitions: For compound I-A m/z509.1-243.1 • For compound II m/z481.1-215.1 Pharmacokinetic Parameters
Pharmacokinetic analysis of these plasma concentration data was conducted using noncompartmental methods. The area under the curve (AUC(0-t)) was estimated from time zero to the last measured time point using the linear trapezoidal rule. The rate of elimination (ke) was estimated by log-linear regression from the terminal phase of the plasma concentration-time curves. Area under the tail of the curve was estimated as the ratio of the last measured concentration to ke. The area under the curve from time zero to infinity (AUC(0-∞)) was obtained by addition of the area under the tail to AUC(0-t). Elimination half-life was estimated as 0.693/ke. The observed values for the peak plasma concentration (Cmax) were recorded.

With `CCOC1OC(=O)C[C@@H]1NC(=O)[C@@H]1CCCN1C(=O)[C@@H](NC(=O)c1nccc2ccccc12)C(C)(C)C` (some centres unmarked) [Compound B, reference compound], the AUC is recorded as 1.35 μgXh/mL.

For `CCO[C@@H]1OC(=O)C[C@@H]1NC(=O)[C@@H]1CCCN1C(=O)[C@@H](NC(=O)c1ccc(N)c(Cl)c1)C(C)(C)C` [Compound I], the “Bioavailability (in words)” value is recorded as “unexpectedly improved bioavailability” and the AUC stood at 11.7 μgXh/mL.

Regarding `CC(C)(C)C(NC(=O)c1ccc(N)c(Cl)c1)C(=O)N1CCCC1C(=O)NC(C=O)CC(=O)O` (centres unmarked) [II], the “Bioavailability (in words)” value was “poor bioavailability”.

The compound `CCO[C@@H]1OC(=O)C[C@@H]1NC(=O)[C@@H]1CCCN1C(=O)[C@H](C)NC(=O)c1ccc(N)c(Cl)c1` [Compound A, reference compound] gave an AUC of 2.18 μgXh/mL.
